Assay results taken from publication PMC7044166 (Scientific Reports, 2020).
“And” between values parts separate entries of the source, which are not always exact repeats. Identical values can stand only once. Like-named read-outs stand apart in the source and are kept apart here.

Tests used:
[1] = Stability of DSV, TAM and TOH in rat plasma under storage and treatment conditions; type: in vitro ADME; settings: six determinations; for recovery at 56 h / recovery at 6 h / recovery / recovery at 30 days: Wistar, rat, rat plasma; for recovery at 56 h: rat plasma (prepared QC samples in the auto-injector), 10 °C, read-out: Auto-sampler stability, mean recovery (%) ± RSD; for recovery at 6 h / recovery / recovery at 30 days: rat plasma (spiked QC samples); for recovery at 6 h: 25 °C, read-out: Short-term stability, mean recovery (%) ± RSD; for recovery / recovery at 30 days: −30 °C; for recovery: 3 cycles, read-out: Freeze-thaw stability, mean recovery (%) ± RSD; for recovery at 30 days: read-out: Long-term stability, mean recovery (%) ± RSD; for recovery at 3 months: analyte solutions, 4 °C, read-out: Refrigerator stability, mean recovery (%) ± RSD
Experimental: This ensures that no detectable degradation was noticed and that all analytes were stable under the studied conditions. The analytes’ solutions were also stable when kept refrigerated at 4 °C for 3 months or at room temperature for up to 6 h.
Samples were subjected to different storage conditions. Auto-sampler stability was assessed by leaving prepared samples in the auto-injector (10 °C, 56 h) before the injection. Short-term (bench top) stability was evaluated by analyzing samples after being stored at room temperature (25 °C, 6 h). On the other hand, long-term stability was assessed by analyzing samples which had been frozen before analysis (−30 °C, 30 days). Stability of samples was also assessed following three freeze–thaw cycles (frozen at −30 °C, thawed at 25 °C).

[2] = Pharmacokinetic interaction study of DSV and TAM/TOH after oral single or co-administration to Wistar rats (UPLC-MS/MS of plasma, NCA); type: in vivo; settings: for change in PK parameters following co-administration compared with single administration: Group III (DSV 50 mg/kg + TAM 10 mg/kg, oral) vs Group I (DSV) and Group II (TAM), only exception tmax of TOH; for AUC(0-inf) / Tmax / half-life / Cmax: male, Wistar, rat, plasma, po, mean ± SD, n = 5; for half-life: read-out: t½ (converted); for Cmax: rat plasma; for M.R.(%) metabolite ratio: ratio of AUC0-∞ of TOH to that of TAM, rats
Experimental: The rats were acclimatized for seven days before starting the experiment. All rats were kept in a well-ventilated room and under standard laboratory conditions; 12 h day/night cycle, average temperature of 25 ± 2 °C, and average relative humidity of 50 ± 2%.
Three group of randomly distributed rats (n = 5) were used to conduct the study. […] Following drug administration, orbital blood samples (0.3 mL) were collected into a series of 1.5 mL polythene heparinized tubes prior to dosing (0 time) and at different time intervals following the drug administration; 0.25, 0.5, 1, 2, 4, 5, 12, 24, and 48 h. Immediate centrifugation (4,500 rpm) of collected blood samples was performed at 4 °C for 30 min. The resulting plasma samples were then stored at −20 °C until the day of analysis. Plasma samples (50 µL) were separately mixed with 50 µL OND, IS, (50 ng/mL), 150 µL of 2% formic acid, and finally completed to 1-mL volume with acetonitrile. Sample preparation was then carried out exactly as mentioned under the experimental section. […] These concentrations were then plotted versus the corresponding withdrawal time.
Plasma concentration-time data were treated by the non-compartmental analysis (NCA) method using PKSolver Add-In Excel 2010. Different PK parameters were calculated. They included maximum drug plasma concentration (Cmax) and the time required to reach the maximum plasma concentration (tmax). Both Cmax and tmax were derived from plasma concentration-time curve simply by visual inspection of the data. Using the PKSover, the elimination rate constant (Kel), the half-life (t1/2), the area under the plasma concentration-time curve from 0 time to the last sampling time t (AUC0-t), the area under the plasma concentration-time curve from 0 time to ∞ (AUC0-∞), and the apparent oral clearance (CL/F) were calculated. Kel was calculated from the slope of the plasma concentration-time curve during the elimination phase and from which t1/2 was derived, t1/2 = 0.693/Kel. The linear trapezoidal rule was used to calculate AUC0-t. The summation of AUC0-t and the extrapolated area from time t to ∞, calculated from the last measured concentration (Clast), result in total AUC from 0 time to ∞, AUC0-∞, AUC0-∞ = AUC0-t + (Clast/Kel). CL/F was calculated by dividing the dose by AUC0-∞. The relative bioavailability (R.B.) was obtained from the ratio of AUC0-∞ of the treated group to AUC0-∞ of the control group.

[3] = design: method as in earlier work; settings: cited from earlier work
[4] = system: estrogen-dependent cell proliferation; settings: relative to TAM, cited from earlier work
[5] = high concentration level (800, 400, 400 ng/mL for DSV, TAM, TOH)
[6] = oral co-administration of DSV 50 mg/kg and TAM 10 mg/kg (TOH as metabolite of TAM)
[7] = single oral administration, DSV 50 mg/kg or TAM 10 mg/kg (TOH as metabolite of TAM)

Row | recovery at 56 h [1, 5] | recovery at 56 h ([1]; low concentration level) | recovery at 6 h [1, 5] | recovery at 6 h ([1]; low concentration level) | recovery ([1]; low concentration level) | recovery at 30 days [1, 5] | recovery at 30 days ([1]; low concentration level) | recovery at 3 months [1, 5] | recovery at 3 months ([1]; low concentration level) | change in PK parameters following co-administration compared with single administration [2] | AUC(0-inf) [2, 6] | Tmax [2, 6] | half-life [2, 6] | Cmax [2, 6] | AUC(0-inf) [2, 7] | Tmax [2, 7] | half-life [2, 7] | Cmax [2, 7] | SMILES | other results
1 | 98.5% | 95.5% | 95% | 96.3% | 98.5% | 98.8% | 96.8% | 97.6% | 96.2% | no significant changes | 4660 ± 687 ng·h/mL | 4.98 ± 0.61 h | 19.7 ± 5.41 h | 159 ± 49 ng/mL | 4270 ± 754 ng·h/mL | 4.95 ± 1.07 h | 17.9 ± 5.93 h | 144 ± 26.5 ng/mL | COc1c(-c2ccc3cc(NS(C)(=O)=O)ccc3c2)cc(-n2ccc(=O)[nH]c2=O)cc1C(C)(C)C [DSV, Dasabuvir] | pKa (pK1) [3]: 8.2; pKa (pK2) [3]: 9.2
2 | 93.5% | 98.2% | 96.8% | 98.2% | 96.1% | 97.3% | 99.7% | 96.6% | 98.9% | – | 3510 ± 464 ng·h/mL | 3.03 ± 0.66 h | 17.7 ± 3.42 h | 288 ± 81 ng/mL | 3880 ± 407 ng·h/mL | 2.03 ± 0.95 h | 15.8 ± 5.18 h | 307 ± 109 ng/mL | CC/C(=C(\c1ccccc1)c1ccc(OCCN(C)C)cc1)c1ccccc1 [TAM, Tamoxifen] | –
3 | 95.2% | 99.7% | 98.9% | 96.9% | 97.5% | 95.8% | 99% | 97% | 98% | no significant changes | 4550 ± 913 ng·h/mL | 5.03 ± 0.66 h | 19.7 ± 1.41 h | 164 ± 54.5 ng/mL | 4730 ± 774 ng·h/mL | 2.03 ± 0.95 h | 28.8 ± 1.98 h | 172 ± 54 ng/mL | CC/C(=C(\c1ccc(O)cc1)c1ccc(OCCN(C)C)cc1)c1ccccc1 [TOH, 4-hydroxy tamoxifen] | M.R.(%) metabolite ratio ([2]; oral co-administration of DSV 50 mg/kg and TAM 10 mg/kg): 129.65 ± 10.88%; M.R.(%) metabolite ratio ([2]; single oral TAM 10 mg/kg): 121.86 ± 11%; pka [3]: 8.66 and 9.45; reported estrogenic properties, times more potent than TAM ([4]; at least, reported): 30–100 times; times more potent than TAM in inhibiting estrogen-dependent cell proliferation [4]: 30 to 100 times
